Laboratory results taken from US8466104B2, “Therapeutically active alpha MSH analogues” (AbbVie Inc., priority 2005, dated 2013).
“Also recorded” adds a separate entry of the source.

Columns and labels:
[1] = tested on: LPS induced TNF-α production by human leucocytes (PBMC); test: Inhibition of LPS induced TNF-a production by human leucocytes in vitro (experimental setup 1); format: cell-based; conditions: for dose dependent reduction of LPS induced TNF-a accumulation / inhibitory effect on TNF-a accumulation compared to native a-MSH / LPS induced TNF-a accumulation, % of the maximal response (LPS-Vehicle): human leucocyte suspension; for LPS induced TNF-a accumulation, % of the maximal response (LPS-Vehicle): 10 ng LPS/mL, 18 hours, maximal effect (10^−7 M); for concentration at which the maximal inhibitory effect on LPS-induced TNF-α production was achieved: human lymphocyte suspension
Experimental: Inhibition of LPS Induced TNF-a Production by Human Leucocytes In Vitro
20 mL human blood is collected in vacutainer tubes containing EDTA. PBMC is isolated using Ficoll-Paque Plus as in Amersham's Instruction 71-7167-00 AD, 2002-06. PBMC is counted using Tryphan Blue Solution (Sigma) and incubated in RPMI 1640, (Applichem), supplemented with 10 mM Hepes (Sigma), 2 mM L-glutamin (Sigma), 0.1% BSA (Sigma) and 50U/50 μg/mL Penicillin/Streptomycin (Sigma) in the concentration 5×10^5 cells/mL. The isolated PBMC is incubated in a humidified 5% CO2, 95% air atmosphere, at 37° C., in 24 well flat-bottomed plates (Corning Incorporated) with medium, 10 ng LPS/mL (Sigma), and test compound. After 18 hours the samples are centrifuged, and TNF-α in the supernatants is measured using Tumour Necrosis Factor Alpha [(h)TNF-α] from Human Biotrak ELISA System (Amersham).
The samples are incubated as following per donor: • PBMC's in RPMI (Time Control) • PBMC's with 10 ng LPS/mL (Vehicle) • PBMC's, 10 ng LPS/mL, 10^−17M a-MSH or a-MSH analogue • PBMC's, 10 ng LPS/mL, 10^−15M a-MSH or a-MSH analogue • PBMC's, 10 ng LPS/mL, 10^−13M a-MSH or a-MSH analogue • PBMC's, 10 ng LPS/mL, 10^−11M a-MSH or a-MSH analogue • PBMC's, 10 ng LPS/mL, 10^−9M a-MSH or a-MSH analogue • PBMC's, 10 ng LPS/mL, 10^−7M a-MSH or a-MSH analogue
All samples are diluted from an initial stock solution between 1.4×10^−4M and 1.8×10^−3M. All solutions are handled in BSA coated vials in order to protect against binding of the compound to the surface of the vials.
Data is presented as mean±SE. The effect of test compounds on LPS induced TNF-a liberation is expressed as percentage of the TNF-a accumulation in the LPS-vehicle group. All comparisons are analysed with Student's unpaired t-test. Differences are considered significant at probability levels (p) of 0.05.

[2] = tested on: ischemia-induced acute renal failure in rats; test: Inhibition of renal failure induced by 40 minutes bilateral occlusion of the renal arteries in rats (experimental setup 6); format: in vivo, rat; conditions: for diuresis (urine flow rate): 5 day after bilateral renal ischemia (RIR), 200 μg/kg iv; for effect on post ischemic polyuria: bilateral renal ischemia
Experimental: Inhibition of Renal Failure Induced by 40 Minutes Bilateral Occlusion of the Renal Arteries in Rats
Barrier-bred and specific pathogen-free female Wistar rats (250 g) are obtained from Charles River, Hannover, Germany. The animals are housed in a temperature (22-24° C.) and moisture (40-70%) controlled room with a 12-hour light-dark cycle (light on from 6:00 A.M. to 6:00 P.M.). All animals are given free access to tap water and a pelleted rat diet containing approximately 140 mmol/kg of sodium, 275 mmol/kg potassium and 23% protein (Altromin catalogue no. 1310, Altromin International, Lage, Germany).
The rats, which previously have been instrumented with a chronic venous catheter, are placed in metabolic cages and after a two days acclimation period to the metabolic cages, experimental ARF is induced by occlusion of both renal arteries for […]. During surgery, the rats are anesthetized with isoflurane-nitrous oxide and placed on a heated table to maintain rectal temperature at 37° C. Both kidneys are exposed through flank incisions, mobilized by being dissected free from the perirenal fat, then a small portion of the renal artery is gently dissected from the vein. The renal arteries are occluded with a smooth surfaced vascular clip (60 g pressure; World Precision Instruments, UK) for 40 min. Total ischemia is confirmed by observing blanching of the entire kidney surface. During the period of ischemia, the wounds are closed temporarily to maintain body temperature. After the clips are removed, the kidneys are observed for additional 2-5 min. to ensure color change, indicating blood reflow. Then the wound are closed with 3-0 silk ligatures. The rats returned to the metabolic cages, and daily 24 h urine output and water intake are measured for five days. As a control group, rats are subjected to sham operations identical to the ones used for ARF rats without occlusion of the renal arteries. Sham-operated rats are monitored in parallel with rats with ARF.
The rats are subjected to one of the following i.v treatments: • Vehicle: 0.5 ml 150 mM NaCl. • a-MSH: 200 μg a-melanocyte stimulating hormone/kg b.w. in 0.5 ml 150 mM NaCl. Test compound: 200 μg test compound/kg b.w. in 0.5 ml 150 mM NaCl. Treatment is given 5 minutes prior to reperfusion of the kidney and subsequently 6 and 24 hours later. Statistics
Data are presented as mean±S.E. Within group comparisons are analysed with Student's paired t test. Between group comparisons are performed by one way analysis of variance followed by Fishers Least Significant Difference test. Differences are considered significant at the 0.05 level.

Ac-Lys-Lys-Lys-Lys-Lys-Lys-Ser-Tyr-Ser-Met-Glu-His-Phe-Arg-Trp-Gly-Lys-Pro-Val-NH2 (Ac-KKKKKKSYSMEHFRWGKPV-NH2) [a-MSH analogue #1]
dose dependent reduction of LPS induced TNF-a accumulation [1]: dose dependently reduce | inhibitory effect on TNF-a accumulation compared to native a-MSH [1]: markedly more pronounced | LPS induced TNF-a accumulation, % of the maximal response (LPS-Vehicle) [1]: 47±2% | concentration at which the maximal inhibitory effect on LPS-induced TNF-α production was achieved [1]: 10^−7 M | diuresis (urine flow rate) [2]: 18.8±3.6 ml/24 hours | effect on post ischemic polyuria [2]: complete normalization of urine flow rate | effect on post ischemic polyuria ([2]; listed as SEQ ID NO: 1): completely normalized the diuresis

Ac-Lys-Lys-Lys-Lys-Lys-Lys-Ser-Tyr-Ser-Nle-Glu-His-(D-Phe)-Arg-Trp-Gly-Lys-Pro-Val-NH2 (KKKKKKSYSXEHFRWGKPV; N-acetyl, Nle, D-Phe, C-amide) [a-MSH analogue #2]
dose dependent reduction of LPS induced TNF-a accumulation [1]: dose dependently reduce | inhibitory effect on TNF-a accumulation compared to native a-MSH [1]: markedly more pronounced | LPS induced TNF-a accumulation, % of the maximal response (LPS-Vehicle) [1]: 42±111% | concentration at which the maximal inhibitory effect on LPS-induced TNF-α production was achieved [1]: 10^−7 M | effect on post ischemic polyuria [2]: markedly reduces the degree of polyuria

Ac-Lys-Lys-Lys-Lys-Lys-Lys-Ser-Tyr-Ser-Nle-Glu-His-D-Nal-Arg-Trp-Gly-Lys-Pro-Val-NH2 (KKKKKKSYSXEHXRWGKPV; not fully specified; N-acetyl, Nle, D-Nal, C-amide) [a-MSH analogue #3]
dose dependent reduction of LPS induced TNF-a accumulation [1]: dose dependently reduce | inhibitory effect on TNF-a accumulation compared to native a-MSH [1]: markedly more pronounced | LPS induced TNF-a accumulation, % of the maximal response (LPS-Vehicle) [1]: 53±13%

Ser-Tyr-Ser-Met-Glu-His-Phe-Arg-Trp-Gly-Lys-Pro-Val [a-MSH, reference compound]
dose dependent reduction of LPS induced TNF-a accumulation [1]: dose dependently reduce | LPS induced TNF-a accumulation, % of the maximal response (LPS-Vehicle) [1]: 73±9% | concentration at which the maximal inhibitory effect on LPS-induced TNF-α production was achieved ([1]; listed as α-MSH): 10^−7 M | diuresis (urine flow rate) [2]: 29.0±2.9 ml/24 hours | effect on post ischemic polyuria [2]: unable to reduce the polyuria; also recorded: unable to normalize the urine production
